Results published in paper PMC8929358 (Pharmacology Research & Perspectives, 2021).

Experiments:
[1] = target: T1, UGT1A4 (Homo sapiens, UniProt P22310); assay: Glucuronidation of opicapone by recombinant UGT1A4; format: in vitro ADME; details: 20 μM opicapone; incubation period of 60 min
T1 sequence (P22310 29-534): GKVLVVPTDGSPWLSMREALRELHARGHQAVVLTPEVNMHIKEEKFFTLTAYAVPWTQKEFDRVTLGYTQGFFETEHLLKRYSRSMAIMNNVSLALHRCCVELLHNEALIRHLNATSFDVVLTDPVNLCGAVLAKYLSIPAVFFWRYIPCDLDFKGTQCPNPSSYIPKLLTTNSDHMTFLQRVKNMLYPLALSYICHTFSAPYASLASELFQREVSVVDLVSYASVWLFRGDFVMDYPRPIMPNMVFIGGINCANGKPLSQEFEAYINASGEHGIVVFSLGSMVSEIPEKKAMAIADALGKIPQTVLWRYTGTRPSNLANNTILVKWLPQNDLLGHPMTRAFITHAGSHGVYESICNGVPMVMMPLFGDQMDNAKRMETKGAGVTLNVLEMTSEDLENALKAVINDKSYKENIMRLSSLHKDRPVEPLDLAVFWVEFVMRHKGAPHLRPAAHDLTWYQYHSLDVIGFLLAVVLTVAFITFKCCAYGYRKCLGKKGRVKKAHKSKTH

[2] = Glucuronidation of opicapone in human liver microsomes; format: in vitro ADME; details: human liver microsomes (HLM), pH 7.5
[3] = low solubility compound; ref unpublished information; cited from earlier work
[4] = target: T2, UGT 2B15 (Homo sapiens, UniProt P54855); assay: Glucuronidation of opicapone by recombinant UGT2B15; format: in vitro ADME; details: 20 μM opicapone
T2 sequence (P54855 24-530): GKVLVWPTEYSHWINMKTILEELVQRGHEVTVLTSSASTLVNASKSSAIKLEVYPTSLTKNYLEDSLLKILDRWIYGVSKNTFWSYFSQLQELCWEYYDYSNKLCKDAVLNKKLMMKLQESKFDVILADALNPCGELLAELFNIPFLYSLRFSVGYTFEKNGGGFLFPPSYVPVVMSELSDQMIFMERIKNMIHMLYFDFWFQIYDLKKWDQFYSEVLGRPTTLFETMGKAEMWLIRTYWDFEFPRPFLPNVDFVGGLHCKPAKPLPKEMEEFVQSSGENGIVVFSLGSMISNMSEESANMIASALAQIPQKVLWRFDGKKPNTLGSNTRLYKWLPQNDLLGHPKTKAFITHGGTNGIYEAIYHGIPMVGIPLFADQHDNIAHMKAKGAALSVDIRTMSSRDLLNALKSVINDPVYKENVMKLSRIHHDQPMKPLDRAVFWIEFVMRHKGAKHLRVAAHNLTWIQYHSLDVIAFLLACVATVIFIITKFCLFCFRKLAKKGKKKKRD

[5] = target: T3, UGT 1A3 (Homo sapiens, UniProt P35503); assay: Glucuronidation of opicapone by recombinant UGT1A3; format: in vitro ADME; details: 20 μM opicapone
T3 sequence (P35503 29-534): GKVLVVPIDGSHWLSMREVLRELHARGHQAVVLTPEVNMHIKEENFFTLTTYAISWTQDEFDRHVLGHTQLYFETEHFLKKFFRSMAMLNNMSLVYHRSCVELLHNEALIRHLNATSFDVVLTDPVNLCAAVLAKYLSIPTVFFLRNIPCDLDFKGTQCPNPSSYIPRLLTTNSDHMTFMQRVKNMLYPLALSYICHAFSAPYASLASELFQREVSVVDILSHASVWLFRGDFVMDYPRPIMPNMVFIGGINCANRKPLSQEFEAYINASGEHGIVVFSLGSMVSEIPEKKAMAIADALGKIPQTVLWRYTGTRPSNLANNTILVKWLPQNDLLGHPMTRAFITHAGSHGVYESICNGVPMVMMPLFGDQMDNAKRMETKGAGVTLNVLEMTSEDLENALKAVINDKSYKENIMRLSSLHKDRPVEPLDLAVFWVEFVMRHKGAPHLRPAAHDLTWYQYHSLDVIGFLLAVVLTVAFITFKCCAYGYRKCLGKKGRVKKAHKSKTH

[6] = healthy subjects; oral; cited from earlier work
[7] = target: T4, UGT1A6 (Homo sapiens, UniProt P19224); assay: Glucuronidation of opicapone by recombinant UGT1A6; format: in vitro ADME
T4 sequence (P19224 27-532): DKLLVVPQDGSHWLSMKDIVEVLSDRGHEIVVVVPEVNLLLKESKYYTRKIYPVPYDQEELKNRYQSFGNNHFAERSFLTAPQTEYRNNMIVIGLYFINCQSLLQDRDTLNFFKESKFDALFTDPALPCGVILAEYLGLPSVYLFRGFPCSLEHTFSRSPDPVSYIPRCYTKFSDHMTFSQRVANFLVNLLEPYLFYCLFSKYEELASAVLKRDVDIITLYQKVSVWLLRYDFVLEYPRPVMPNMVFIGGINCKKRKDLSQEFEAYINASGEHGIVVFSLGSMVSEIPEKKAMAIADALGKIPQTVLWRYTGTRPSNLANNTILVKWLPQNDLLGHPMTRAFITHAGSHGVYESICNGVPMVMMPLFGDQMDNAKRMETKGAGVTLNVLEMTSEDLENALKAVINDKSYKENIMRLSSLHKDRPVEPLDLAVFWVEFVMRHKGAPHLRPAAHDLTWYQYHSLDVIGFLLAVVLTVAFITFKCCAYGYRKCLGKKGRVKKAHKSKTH

[8] = target: T5, UGT 2B7 (Homo sapiens, UniProt P16662); assay: Glucuronidation of opicapone by recombinant UGT2B7; format: in vitro ADME; details: 20 μM opicapone
T5 sequence (P16662 24-529): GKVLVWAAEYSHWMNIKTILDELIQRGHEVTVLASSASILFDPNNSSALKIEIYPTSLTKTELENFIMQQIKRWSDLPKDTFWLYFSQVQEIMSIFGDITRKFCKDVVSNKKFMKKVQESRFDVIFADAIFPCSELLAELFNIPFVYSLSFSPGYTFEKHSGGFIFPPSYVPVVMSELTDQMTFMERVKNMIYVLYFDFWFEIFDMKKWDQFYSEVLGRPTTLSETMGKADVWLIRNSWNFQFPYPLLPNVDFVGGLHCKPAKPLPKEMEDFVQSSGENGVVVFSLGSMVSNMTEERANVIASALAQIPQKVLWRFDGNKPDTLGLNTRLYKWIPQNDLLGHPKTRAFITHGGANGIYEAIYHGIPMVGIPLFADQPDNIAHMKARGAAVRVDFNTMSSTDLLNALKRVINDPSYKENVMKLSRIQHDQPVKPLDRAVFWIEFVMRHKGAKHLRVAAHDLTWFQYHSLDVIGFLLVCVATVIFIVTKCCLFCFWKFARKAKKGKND

[9] = Sulfate conjugation of opicapone in human liver S9; format: in vitro ADME; details: human liver S9 fraction (HLS9), pH 7.4

- Metabolite formation (screening) [1]: No metabolite formation was detected
- Km [2]: 27.9 ± 6.4 µM
- Formation of BIA 9-1106 (screening) [4]: little amounts
- Formation of BIA 9-1106 (screening) [5]: little amounts
- Formation of BIA 9-1106 (screening) ([7]; 20 μM opicapone): little amounts
- Glucuronidation kinetics (form of the rate curve) ([7]; opicapone 1 to 250 μM): linear
- Formation of BIA 9-1106 (screening) [8]: little amounts
- Km [9]: 20.5 ± 2.6 µM
SMILES: Cc1c(Cl)c(C)[n+]([O-])c(Cl)c1-c1noc(-c2cc(O)c(O)c([N+](=O)[O-])c2)n1 [opicapone, 2,5‐dichloro‐3‐(5‐(3,4‐dihydroxy‐5‐nitrophenyl)‐1,2,4‐oxadiazol‐3‐yl)‐4,6‐dimethylpyridine 1‐oxide]
- Biopharmaceutics Classification System class [3]: class II
- Apparent terminal elimination half-life (t1/2) [6]: 48 to 192 min
